Assay [1] concerns the target T1, Alpha-1D adrenergic receptor (Homo sapiens, UniProt P25100). Further: in other assays of this panel Not Active means under 50% inhibition at 10 µM.
T1 sequence (P25100 whole entry): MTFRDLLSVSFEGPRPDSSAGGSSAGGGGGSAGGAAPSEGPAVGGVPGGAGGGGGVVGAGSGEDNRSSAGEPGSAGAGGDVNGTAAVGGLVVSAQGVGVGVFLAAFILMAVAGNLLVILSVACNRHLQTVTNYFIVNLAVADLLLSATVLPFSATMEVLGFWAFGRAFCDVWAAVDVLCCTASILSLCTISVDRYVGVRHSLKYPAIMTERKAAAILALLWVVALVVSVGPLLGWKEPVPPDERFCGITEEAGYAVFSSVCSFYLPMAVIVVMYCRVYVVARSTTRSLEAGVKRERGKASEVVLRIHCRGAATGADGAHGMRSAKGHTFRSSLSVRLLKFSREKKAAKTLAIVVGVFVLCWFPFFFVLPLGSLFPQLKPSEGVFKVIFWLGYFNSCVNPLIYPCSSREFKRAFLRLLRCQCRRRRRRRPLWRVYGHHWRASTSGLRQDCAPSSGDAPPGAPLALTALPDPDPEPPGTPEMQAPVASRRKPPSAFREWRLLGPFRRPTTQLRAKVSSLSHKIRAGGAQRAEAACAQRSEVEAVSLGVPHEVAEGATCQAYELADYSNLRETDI
The format is cell membranes, HEK293, Membrane.

The target in the next assay is T2, B2 bradykinin receptor (Homo sapiens, UniProt P30411). Further: in other assays of this panel Not Active means under 50% inhibition at 10 µM.
T2 sequence (P30411 whole entry): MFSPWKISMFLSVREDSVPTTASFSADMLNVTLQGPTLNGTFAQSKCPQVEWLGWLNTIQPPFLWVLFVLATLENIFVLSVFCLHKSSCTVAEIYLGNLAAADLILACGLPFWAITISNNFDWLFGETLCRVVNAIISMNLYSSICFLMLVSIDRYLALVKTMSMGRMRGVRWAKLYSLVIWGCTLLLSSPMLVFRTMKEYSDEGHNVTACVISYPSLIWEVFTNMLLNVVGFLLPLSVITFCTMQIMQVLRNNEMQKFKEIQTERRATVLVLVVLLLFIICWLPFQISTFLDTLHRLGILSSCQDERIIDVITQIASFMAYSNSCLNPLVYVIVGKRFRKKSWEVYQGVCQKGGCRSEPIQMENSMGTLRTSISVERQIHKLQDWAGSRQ
The format is cell membranes, Membrane. To be noted: chem-1.

For another assay, the target named is T3, Calcitonin receptor (Homo sapiens, UniProt P30988). Further: in other assays of this panel Not Active means under 50% inhibition at 10 µM.
T3 sequence (P30988 whole entry): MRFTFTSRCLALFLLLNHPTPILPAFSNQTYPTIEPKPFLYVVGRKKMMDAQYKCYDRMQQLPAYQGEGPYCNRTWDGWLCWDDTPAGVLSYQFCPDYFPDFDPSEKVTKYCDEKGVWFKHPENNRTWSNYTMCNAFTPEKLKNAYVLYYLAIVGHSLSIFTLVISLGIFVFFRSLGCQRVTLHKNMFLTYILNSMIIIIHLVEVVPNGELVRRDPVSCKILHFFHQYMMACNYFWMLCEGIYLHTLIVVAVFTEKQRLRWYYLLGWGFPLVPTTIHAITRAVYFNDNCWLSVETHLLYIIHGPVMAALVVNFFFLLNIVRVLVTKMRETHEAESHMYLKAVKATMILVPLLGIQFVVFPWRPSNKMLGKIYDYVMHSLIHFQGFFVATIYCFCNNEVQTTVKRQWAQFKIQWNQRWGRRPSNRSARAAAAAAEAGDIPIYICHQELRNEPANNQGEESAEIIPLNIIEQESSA
The format is cell membranes, Membrane. The conditions noted are these: t47d.

In assay [2] the target is 5-hydroxytryptamine receptor 4 (Cavia porcellus, UniProt O70528). The format is cell membranes, Dunkin-Hartley, Striatum, Membrane. Further: in other assays of this panel Not Active means under 50% inhibition at 10 µM.
Chain of 5-hydroxytryptamine receptor 4 (O70528 whole entry): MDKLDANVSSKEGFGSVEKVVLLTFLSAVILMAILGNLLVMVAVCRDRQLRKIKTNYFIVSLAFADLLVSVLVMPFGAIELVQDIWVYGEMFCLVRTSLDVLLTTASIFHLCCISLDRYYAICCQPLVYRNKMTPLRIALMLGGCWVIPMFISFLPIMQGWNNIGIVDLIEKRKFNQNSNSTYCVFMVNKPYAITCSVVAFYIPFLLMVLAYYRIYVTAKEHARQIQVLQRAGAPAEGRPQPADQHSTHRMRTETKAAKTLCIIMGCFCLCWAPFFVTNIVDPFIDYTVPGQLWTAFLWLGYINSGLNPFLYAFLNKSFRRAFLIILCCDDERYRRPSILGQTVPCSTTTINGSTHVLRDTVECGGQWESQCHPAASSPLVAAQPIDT
A further assay has as its target T4, Thromboxane-A synthase (Homo sapiens, UniProt P24557).
T4 sequence (P24557 whole entry): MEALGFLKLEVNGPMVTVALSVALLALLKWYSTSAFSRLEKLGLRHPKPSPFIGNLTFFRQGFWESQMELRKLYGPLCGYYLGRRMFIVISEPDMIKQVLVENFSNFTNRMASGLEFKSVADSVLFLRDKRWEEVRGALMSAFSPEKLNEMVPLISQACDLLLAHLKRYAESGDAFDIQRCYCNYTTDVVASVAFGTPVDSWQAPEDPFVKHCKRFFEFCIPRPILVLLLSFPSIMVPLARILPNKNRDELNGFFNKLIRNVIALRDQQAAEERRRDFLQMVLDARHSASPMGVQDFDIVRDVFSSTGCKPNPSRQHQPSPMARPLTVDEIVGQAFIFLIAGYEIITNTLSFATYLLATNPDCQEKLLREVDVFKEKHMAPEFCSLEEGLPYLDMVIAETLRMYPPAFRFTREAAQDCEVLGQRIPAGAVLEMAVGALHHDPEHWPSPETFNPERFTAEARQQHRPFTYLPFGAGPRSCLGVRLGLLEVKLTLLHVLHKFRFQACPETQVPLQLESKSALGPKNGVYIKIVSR
Briefly: biochemical. The format is tissue-based, Platelet. The conditions noted are these: platelet.

The next assay deals with Carbonic anhydrase 2 (Homo sapiens, UniProt P00918). Briefly: DRUGMATRIX: Carbonic Anhydrase II enzyme inhibition (substrate: 4-Nitrophenyl acetate (4-NPA)). Type of assay: tissue-based, Erythrocyte. To be noted: erythrocyte; Not Active = under 50% inhibition at 10 µM.
The target of assay [3] is T5, Muscarinic acetylcholine receptor M4 (Homo sapiens, UniProt P08173). Further: in other assays of this panel Not Active means under 50% inhibition at 10 µM.
T5 sequence (P08173 whole entry): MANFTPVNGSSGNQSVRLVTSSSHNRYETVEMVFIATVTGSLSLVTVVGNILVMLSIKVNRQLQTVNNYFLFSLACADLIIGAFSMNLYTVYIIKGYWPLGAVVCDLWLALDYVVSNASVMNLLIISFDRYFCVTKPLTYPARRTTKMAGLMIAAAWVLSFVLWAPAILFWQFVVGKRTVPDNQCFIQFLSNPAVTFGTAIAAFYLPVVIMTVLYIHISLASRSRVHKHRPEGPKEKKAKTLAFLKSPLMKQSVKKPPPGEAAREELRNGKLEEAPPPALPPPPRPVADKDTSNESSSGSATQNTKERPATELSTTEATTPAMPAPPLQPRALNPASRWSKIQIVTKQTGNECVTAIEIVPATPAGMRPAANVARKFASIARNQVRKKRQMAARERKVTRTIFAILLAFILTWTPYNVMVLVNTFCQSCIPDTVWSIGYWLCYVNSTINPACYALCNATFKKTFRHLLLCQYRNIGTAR
The format is cell membranes, CHO-K1, Membrane. The conditions noted are these: cho-k1.

A further assay concerns the target T6, Cathepsin G (Homo sapiens, UniProt P08311).
T6 sequence (P08311 whole entry): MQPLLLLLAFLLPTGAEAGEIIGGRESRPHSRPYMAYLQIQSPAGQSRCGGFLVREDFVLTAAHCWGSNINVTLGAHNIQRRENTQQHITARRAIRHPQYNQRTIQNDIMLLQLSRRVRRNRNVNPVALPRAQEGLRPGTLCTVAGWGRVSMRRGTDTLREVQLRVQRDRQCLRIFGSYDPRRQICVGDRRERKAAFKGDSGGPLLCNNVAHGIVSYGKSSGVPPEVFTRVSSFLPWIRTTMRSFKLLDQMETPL
The format is tissue-based. The conditions noted are these: neutrophil.

IC50 and Ki data for 13 molecules are collected here from ChEMBL document CHEMBL1909046, “DrugMatrix in vitro pharmacology data”.

Molecules are shown by their SMILES.

Broadly, the IC50 is the concentration at which inhibition is half-maximal. For the molecule `CC(C)NCC(O)COc1cccc2ccccc12` (stereo not given) [PROPRANOLOL], the IC50 result (in assay [1] (hek293); at B2 bradykinin receptor; on Calcitonin receptor; in assay [2]; at Thromboxane-A synthase; at Carbonic anhydrase 2) was “Not Active” in each case. In addition, the IC50 entry (in assay [3]; on Cathepsin G) was “Not Active” in each case.
Turning to `COCCCOc1ccnc(C[S+]([O-])c2nc3ccccc3[nH]2)c1C` (stereo not given) [RABEPRAZOLE], the concentration for half-maximal inhibition (IC50) entry (in assay [1] (hek293); on B2 bradykinin receptor; on Calcitonin receptor; in assay [2]; against Thromboxane-A synthase; against Carbonic anhydrase 2) was “Not Active” each time. Further, the concentration for half-maximal inhibition (IC50) entry (in assay [3]; against Cathepsin G) was “Not Active” each time.
By Ki is commonly meant a measure of affinity in units of concentration, obtained from inhibition or displacement. With `O=C(c1ccc(OCCN2CCCCC2)cc1)c1c(-c2ccc(O)cc2)sc2cc(O)ccc12` [RALOXIFENE], the IC50 in assay [1] (read-out: IC50) is 973 nM; on B2 bradykinin receptor, “Not Active”; at Calcitonin receptor, “Not Active”; in assay [2], “Not Active”; against Thromboxane-A synthase, “Not Active”; on Carbonic anhydrase 2, “Not Active”. Also, the IC50 entry (in assay [3]; at Cathepsin G) was “Not Active” each time. In assay [1] (read-out: Ki), the Ki came to 478 nM.
For the molecule `CNC(=C[N+](=O)[O-])NCCSCc1ccc(CN(C)C)o1` [RANITIDINE], the IC50 entry (in assay [1] (hek293); at B2 bradykinin receptor; at Calcitonin receptor; in assay [2]; at Thromboxane-A synthase; on Carbonic anhydrase 2) was “Not Active” each time. Further, the IC50 entry (in assay [3]; against Cathepsin G) was “Not Active” in each case.
In the case of `CO[C@H]1/C=C/O[C@@]2(C)Oc3c(C)c(O)c4c(c3C2=O)C2=NC3(CCN(CC(C)C)CC3)NC2=C(NC(=O)/C(C)=C\C=C\[C@H](C)[C@H](O)[C@@H](C)[C@@H](O)[C@@H](C)[C@H](OC(C)=O)[C@@H]1C)C4=O` [RIFABUTIN], the concentration for half-maximal inhibition (IC50) result (in assay [1] (hek293); on B2 bradykinin receptor; on Calcitonin receptor; in assay [2]; at Thromboxane-A synthase; on Carbonic anhydrase 2) was “Not Active” in each case. The IC50 entry (in assay [3]; at Cathepsin G) was “Not Active” each time.
In the case of `CC(C)CC(N(C)C)C1(c2ccc(Cl)cc2)CCC1` (stereo not given) [SIBUTRAMINE], the IC50 entry (in assay [1] (hek293); on B2 bradykinin receptor; on Calcitonin receptor; in assay [2]; against Thromboxane-A synthase; at Carbonic anhydrase 2) was “Not Active” in each case. Also, the IC50 entry (in assay [3]; against Cathepsin G) was “Not Active” throughout.
As for `[H]/N=C(/N)N[C@H]1[C@H](O)[C@@H](O)[C@H](O[C@@H]2O[C@@H](C)[C@](O)(C=O)[C@H]2O[C@@H]2O[C@@H](CO)[C@H](O)[C@@H](O)[C@@H]2NC)[C@@H](N/C(N)=N\[H])[C@@H]1O` [STREPTOMYCIN], the IC50 entry (in assay [1] (hek293); against B2 bradykinin receptor; at Calcitonin receptor; in assay [2]; on Thromboxane-A synthase; against Carbonic anhydrase 2) was “Not Active” each time. For the same molecule, the 50% inhibitory concentration (IC50) result (in assay [3]; against Cathepsin G) was “Not Active” each time.
Turning to `COc1cc(NS(=O)(=O)c2ccc(N)cc2)nc(OC)n1` [SULFADIMETHOXINE], the IC50 result (in assay [1] (hek293); on B2 bradykinin receptor; at Calcitonin receptor; in assay [2]; against Thromboxane-A synthase; on Carbonic anhydrase 2) was “Not Active” in each case. The IC50 result (in assay [3]; against Cathepsin G) was “Not Active” throughout.
With `Cc1cc(C)nc(NS(=O)(=O)c2ccc(N)cc2)n1` [SULFAMETHAZINE], the IC50 result (in assay [1] (hek293); against B2 bradykinin receptor; on Calcitonin receptor; in assay [2]; at Thromboxane-A synthase; against Carbonic anhydrase 2) was “Not Active” in each case. The IC50 result (in assay [3]; against Cathepsin G) was “Not Active” in each case.
As for `C[C@]1(Cn2ccnn2)[C@H](C(=O)O)N2C(=O)C[C@H]2S1(=O)=O` [TAZOBACTAM], the IC50 result (in assay [1] (hek293); against B2 bradykinin receptor; at Calcitonin receptor; in assay [2]; at Thromboxane-A synthase; on Carbonic anhydrase 2) was “Not Active” throughout. Also, the IC50 entry (in assay [3]; against Cathepsin G) was “Not Active” each time.
For `CN1C(C(=O)Nc2ccccn2)=C(O)c2sccc2S1(=O)=O` [TENOXICAM], the IC50 entry (in assay [1] (hek293); against B2 bradykinin receptor; on Calcitonin receptor; in assay [2]; on Thromboxane-A synthase; at Carbonic anhydrase 2) was “Not Active” each time. Moreover, the IC50 entry (in assay [3]; against Cathepsin G) was “Not Active” each time.
As to `CC(C)(C)c1ccc(C(O)CCCN2CCC(C(O)(c3ccccc3)c3ccccc3)CC2)cc1` (stereo not given) [TERFENADINE], the IC50 entry (in assay [1] (hek293); on B2 bradykinin receptor; at Calcitonin receptor; in assay [2]; at Thromboxane-A synthase; against Carbonic anhydrase 2) was “Not Active” in each case. Besides, the IC50 entry (in assay [3]; against Cathepsin G) was “Not Active” each time.
As for `O=C1CCC(N2C(=O)c3ccccc3C2=O)C(=O)N1` (stereo not given) [THALIDOMIDE], the IC50 result (in assay [1] (hek293); on B2 bradykinin receptor; on Calcitonin receptor; in assay [2]; against Thromboxane-A synthase; against Carbonic anhydrase 2) was “Not Active” throughout. Moreover, the IC50 result (in assay [3]; against Cathepsin G) was “Not Active” each time.
